Results from patent US20080221114A1, “2-(Cyclic Aminocarbonyl) Indoline Derivative and Medicinal Composition Containing the Same” (priority 2005, published 2008).

Legend:
mice (male ddY) = assay: Social interaction test (antianxiety effect); assay type: in vivo, mouse; conditions: oral, 1 hour before test; statistically significant increase in social interaction time vs vehicle (Dunnett's test, 5%)
Source text: The test is a behavioral pharmacological test wherein social interaction time which would arise between 2 animals (mice, rats or other) in a test apparatus is considered to be as an anxious indicator [see; File, S. E., J. Neurosci. Methods, 2, 219-238 (1980)]. It is known that a bright and unfamiliar test apparatus which is an aversive condition for mice or rats may suppress a social interaction of the animals and such suppressed social interaction may be restored by an antianxiety drug such as benzodiazepines.
A glass beaker which was inverted onto a frosted glass plate was brightly illuminated with a light source (ca. 1200 lux in the apparatus), and it was used as a test apparatus. Two mice (male ddY, 22-32 g) that were housed in separate home cages were orally treated with a test compound and returned to their home cages. One hour after the oral administration, the two mice were then placed together in the test apparatus, and the amount of time spent in social interaction by the two mice during a 15-minute period was recorded. The social interaction was defined as grooming and sniffing of the partner, genital investigation of the partner, climbing over or crawling under the partner. Four to five pairs (8 to 10 mice) were used per a group.
An antianxiety effect of the test compounds was presented as a minimum effective dose which indicated statistically significant increase in social interaction time as compared with a vehicle control group (Dunnett's test, Significance level: 5%).

[1] = biological target: T1, mitochondrial benzodiazepine receptor (MBR) (Rattus norvegicus, UniProt P16257); assay: Binding assay of mitochondrial benzodiazepine receptor (MBR), [3H]4'-chlorodiazepam (Ro5-4864), rat kidney membrane-preparation; conditions: rat kidney membranes, [3H]4'-chlorodiazepam 0.5 nM, 0° C. for 150 minutes
T1 construct: from tissue; host or cells: kidney of male Wistar rats (crude membrane preparation)
Description: The binding assay of central-type benzodiazepine receptor (CBR) and the preparation of receptor membrane-preparation were carried out according to the partially modified method of Braestrup, C. et al. [see; Br. J. Psychiatry, 133, 249-260 (1978)] with a minor modification; the binding assay of mitochondrial benzodiazepine receptor (MBR) and the preparation of receptor membrane-preparation were carried out according to the method of Schoemaker, H [see; J. Pharmacol. Exp. Ther., 225, 61-69 (1983)] with a minor modification.
CBR and MBR membrane-preparations were prepared from forebrain (CBR) and kidney (MBR) of male Wistar strain rats according to the following procedure, respectively.
To the forebrain of rat, 20 volumes of ice-cold 0.32 M sucrose solution to wet-weight of the tissue (1:20, wet-weight/vol) was added and homogenized, and then the homogenate was centrifuged at 900×g for 10 minutes. The supernatant was centrifuged at 11,500×g for 20 minutes, a buffer I for the binding assay (50 mM Tris-hydrochloric acid buffer, pH 7.5) was added to the resultant precipitate, and the mixture was homogenized, and then it was centrifuged at 30,000×g for 10 minutes. The resulting precipitate was washed 3 times according to the same operation, suspended in the buffer I (1 g of wet-weight of tissue/10 ml) and used as a CBR membrane-preparation for the binding assay. The CBR membrane-preparation was stored at −80° C. until use, and on the day of the assay, it was thawed and suspended in the buffer for use. On the other hand, kidney of rat was homogenized in 20 volumes of ice-cold buffer II for the binding assay to wet-weight of the tissue (1:20, wet-weight/vol) (50 mM sodium phosphate-potassium phosphate buffer solution containing 100 mM sodium chloride, pH 7.4), and then filtrated through 4 layers of gauze, and the filtrate was centrifuged at 40,000×g for 20 minutes. The resulting precipitate was suspended in the buffer II (1 g of wet-weight of tissue/50 ml) and used as a MBR membrane-preparation for the binding assay.
As a labeled ligand and a non-labeled ligand, [^3H]flunitrazepam (final concentration: 1 nM) and diazepam (final concentration: 20 μM) were used respectively, for the CBR binding assay, and [^3H]4′-chlorodiazepam (Ro5-4864, chemical name: 7-chloro-1,3-dihydro-1-methyl-5-(4-chloro-phenyl)-2H-1,4-[…]) (final concentration: 0.5 nM) and diazepam (final concentration: 50 μM) were used respectively, for the MBR binding assay. The binding assay of CBR was carried out by incubating at 0° C. for 30 minutes, while that of MBR was at 0° C. for 150 minutes.
The receptor binding assay was carried out in the following procedure. The test compound which the concentration was known, a tritium labeled ligand, a receptor membrane-preparation and the buffer I or II for the binding assay were added to a 96-well microplate in the total volume was 0.2 ml, and when the receptor membrane-preparation was added, the reaction started. After the incubation, the labeled ligand binding to the receptor was filtrated through a filter plate (UNI FILTER-96GF/B, PerkinElmer, the U.S.) using a cell harvester (PerkinElmer, the U.S.) to stop the reaction. The filter was immediately washed 6 times with 0.3 ml of the ice-cold buffer [50 mM Tris-hydrochloric acid buffer (pH 7.7)]. After 30 μl of liquid scintillation cocktail (MICROSCINTI 20, PerkinElmer, the U.S.) was added to each well on the dried filter plate, the radioactivity was measured with a TopCount. The specific binding amount was obtained by subtracting the non-specific binding amount which was simultaneously measured in the presence of non-labeled ligand from the total binding amount. The concentration that the test compound could decrease the specific binding amount of the labeled ligand to 50% of the amount (IC50 value) was analyzed using nonlinear least-squares method.

Row | IC50 [1] [nM] | melting point [°C] | Compound | Minimum effective dose (mice (male ddY)) [mg/kg]
1 | 0.949 | 212 to 214 | C[C@H]1CCCN(C(=O)[C@@H]2Cc3ccccc3N2c2ncccn2)C1 [Example 23, (S)-2-[(S)-3-methylpiperidin-1-yl]carbonyl-1-(2-pyrimidinyl)indoline] | 0.01
2 | 0.851 | 163 to 164 | C[C@@H]1C[C@H](C)CN(C(=O)[C@@H]2Cc3ccccc3N2c2ncccn2)C1 [Example 24, (S)-2-(cis-3,5-dimethylpiperidin-1-yl)carbonyl-1-(2-pyrimidinyl)indoline] | 0.001
3 | 2.41 | 200 to 204 | C[C@@H]1C[C@H](C)CN(C(=O)[C@@H]2Cc3ccccc3N2c2ccc(=O)n(C)n2)C1 [Example 41, (S)-1-(1-methyl-6-oxo-1,6-dihydropyridazin-3-yl)-2-[(cis-3,5-dimethylpiperidin-1-yl)carbonyl]indoline] | 0.01
4 | 2.03 |  | C[C@@H]1C[C@H](C)CN(C(=O)[C@@H]2Cc3ccccc3N2c2cccnn2)C1 [Example 57, (S)-2-[(cis-3,5-dimethylpiperidin-1-yl)-carbonyl]-1-(3-pyridazinyl)indoline] | 0.1
5 | 1.42 | 162 to 164 | C[C@@H]1C[C@H](C)CN(C(=O)[C@@H]2Cc3ccccc3N2c2cnccn2)C1 [Example 61, (S)-2-(cis-3,5-dimethylpiperidin-1-yl)carbonyl-1-(2-pyrazinyl)indoline] | 
6 | 12.2 | 169 to 172 | C[C@@H]1CCCN(C(=O)[C@@H]2Cc3ccccc3N2c2cccnn2)C1 [Example 62] | 
7 | 1.56 | 164 to 168 | C[C@H]1CCCN(C(=O)C2Cc3cc(F)ccc3N2c2ccc(Cl)nn2)C1 (stereo partly drawn) [Example 67] | 
8 | 1.67 | 223 to 226 | COc1cccc2c1CC(C(=O)N1CCC[C@H](C)C1)N2c1ccc(Cl)nn1 (stereo partly drawn) [Example 68] | 
9 | 4.51 | 136 to 139 | COc1ccc2c(c1)CC(C(=O)N1CCC[C@H](C)C1)N2c1ccc(Cl)nn1 (stereo partly drawn) [Example 69] | 
10 | 2.45 | 184 to 186 | COc1ccc2c(c1)N(c1ccc(Cl)nn1)C(C(=O)N1CCC[C@H](C)C1)C2 (stereo partly drawn) [Example 70] | 
11 | 0.659 | 186 to 189 | C[C@H]1CCCN(C(=O)[C@@H]2Cc3ccccc3N2c2ccccn2)C1 [Example 72] | 
12 | 3.35 | 134 to 137 | COc1ccc(N2c3ccccc3C[C@H]2C(=O)N2CCC[C@H](C)C2)nn1 [Example 73, (S)-1-(6-Methoxypyridazin-3-yl)-2-[[(S)-3-methylpiperidin-1-yl]carbonyl]indoline] | 
13 | 2.77 | 215 to 216 | CC(C)Cn1nc(N2c3ccccc3C[C@H]2C(=O)N2CCC[C@H](C)C2)ccc1=O [Example 75] | 
14 | 3.15 | 215 to 217 | C[C@H]1CCCN(C(=O)[C@@H]2Cc3ccccc3N2c2ccc(=O)n(CC3CCCCC3)n2)C1 [Example 77] | 
15 | 2.53 | 190 to 193 | C[C@H]1CCCN(C(=O)[C@@H]2Cc3ccccc3N2c2ccc3nccn3n2)C1 [Example 78] | 
16 | 1.76 | 268 to 269 | C[C@H]1CCCN(C(=O)[C@@H]2Cc3ccccc3N2c2ccc3nnc(Cl)n3n2)C1 [Example 79, (S)-1-(3-chloro-1,2,4-triazolo[4,3-b]pyridazin-6-yl)-2-[[(S)-3-methylpiperidin-1-yl]carbonyl]indoline] | 
17 | 9.33 | 150 to 152 | C[C@H]1CCCN(C(=O)[C@@H]2Cc3ccccc3N2c2cnn(C)c(=O)c2)C1 [Example 83] | 
18 | 6.54 | 161 to 163 | C[C@H]1CCCN(C(=O)[C@@H]2Cc3cc(Br)ccc3N2c2cccnn2)C1 [Example 90] | 
19 | 2.31 | 175 to 177 | C[C@H]1CCCN(C(=O)[C@@H]2Cc3cc(Cl)ccc3N2c2cccnn2)C1 [Example 91] | 
20 | 5.81 | 241 to 242 | C[C@H]1CCCN(C(=O)[C@@H]2Cc3cc(Br)ccc3N2c2ccc(=O)n(C)n2)C1 [Example 93] | 
21 | 16.7 | 243 to 244 | C[C@H]1CCCN(C(=O)[C@@H]2Cc3cc(Cl)ccc3N2c2ccc(=O)n(C)n2)C1 [Example 94] | 
22 | 44.3 | 103 to 106 | C=Cc1ccc2c(c1)C[C@@H](C(=O)N1CCC[C@H](C)C1)N2c1cccnn1 [Example 98] | 
23 | 28.5 | 225 to 227 | Cn1nc(N2c3ccccc3C[C@H]2C(=O)N2CCCCC2)ccc1=O [Example 107, (S)-1-(1-methyl-6-oxo-1,6-dihydropyridazin-3-yl)-2-(1-piperidinylcarbonyl)indoline] | 
24 | 26.8 | 191 to 193 | C[C@@H]1CCCN(C(=O)[C@@H]2Cc3ccccc3N2c2ccc(=O)n(C)n2)C1 [Example 122] | 
25 | 1.45 | 220 to 222 | C[C@H]1CCCN(C(=O)[C@@H]2Cc3ccccc3N2c2ccc(=O)n(Cc3ccccc3)n2)C1 [Example 123, (S)-1-(1-benzyl-6-oxo-1,6-dihydropyridazin-3-yl)-2-[[(S)-3-methylpiperidin-1-yl]carbonyl]indoline] | 
26 | 1.97 | 173 to 175 | C[C@H]1CCCN(C(=O)[C@@H]2Cc3ccccc3N2c2ccc(=O)n(CC(F)F)n2)C1 [Example 127] | 
27 | 3.91 | 229 to 230 | C[C@H]1CCCN(C(=O)[C@@H]2Cc3ccccc3N2c2ccc(=O)n(CCF)n2)C1 [Example 128, (S)-1-[1-(2-fluoroethyl)-6-oxo-1,6-dihydropyridazin-3-yl]-2-[[(S)-3-methylpiperidin-1-yl]carbonyl]indoline] | 
28 | 5.56 |  | CCn1nc(N2c3ccccc3C[C@H]2C(=O)N2CCC[C@H](C)C2)ccc1=O [Example 129, (S)-1-(1-ethyl-6-oxo-1,6-dihydropyridazin-3-yl)-2-[[(S)-3-methylpiperidin-1-yl]carbonyl]indoline] | 1
29 | 4.04 | 183 to 185 | CCCn1nc(N2c3ccccc3C[C@H]2C(=O)N2CCC[C@H](C)C2)ccc1=O [Example 130] | 

Row | Compound | IC50 [1] [nM] | melting point [°C] | Minimum effective dose (mice (male ddY)) [mg/kg]
30 | 2-[((cis-3,5-dimethylpiperidin-1-yl)-carbonyl]-1-(2-pyrimidinyl)indoline [Example 1] | 1.98 |  | 0.001
